Experiment [1] concerns blood brain barrier (BBB) vascular permeability; Aquaporin 4 (AQP-4). To be noted: cited from earlier work.
Experiment [2] relates to neutrophil oxidative burst in leukocytes isolated from brain tissue. Put plainly: Oxidative burst (ROS, DHR 123 fluorescence by flow cytometry) in leukocytes isolated from brain tissue after mild brain injury by controlled cortical impact. As to conditions: for Oxidative burst in inflammatory cells following mBI (flow cytometry peak shift, FIG. 2): subcutaneous ghrelin, compared to untreated mBI, n=3 animals in each group. It is filed as in vivo, C57/B6 mice. The protocol:
FIG. 1 depicts principle of assaying oxidative burst within inflammatory cells. Dihydrorhodamine 123 (DHR 123) diffuses across the cell membrane. When it encounters reactive oxygen species (ROS), DHR 123 is oxidized and fluoresces green. The fluorescence is then measured and presented as arbitrary fluorescence unit (AFU), wherein higher intensity means greater oxidative burst and, therefore greater concentration of amount of ROS (See Chen, et al., Measurement of oxidative burst in neutrophils,” Methods Mol Biol., 844: 115-124 (2012); which is incorporated herein by reference in its entirety).
Ghrelin administration reduces oxidative burst in inflammatory cells following mBI. Since no well-accepted animal model exists for concussions, a very small cerebral lesion that closely mimics mBI is used as a model of mBI. C57/B6 mice anesthetized with 5% isoflurane in oxygen (1.7 L/min) are given 0.3 mg/kg buprenorphine subcutaneously for analgesia prior to infliction of the mild brain injury. Anesthesia is assessed by paw pinch reflex. After creating a burr hole through the dura with a dental drill, a lesion using a controlled cortical impactor (CCI) is used to create injury 1 mm lateral and posterior to the bregma (5.0 mm/sec at a depth of 1.0 mm).
Animals are separated into three treatment groups: 1) Sham, 2) mBI, and 3) mBI plus ghrelin. A variety of doses can be tested depending upon the particular ghrelin. Ghrelin can be obtained for example from Phoenix Pharmaceuticals, Inc. (Burlingame, Calif.). For example, 1 to 50 μg at one or more time points. As one example, treatment with subcutaneous ghrelin: 1 dose of 10 μg following mBI and additional dose 10 μg 1 hour after. Brain tissue is harvested at 2-8 hours, preferably about 6 hours post-injury. […] The fluorescence is then measured and presented as arbitrary fluorescence unit (AFU), wherein higher intensity means greater oxidative burst and, therefore greater concentration or amount of ROS. […] Oxidative burst, which is a marker for ROS, can be measured by flow cytometry (e.g., FL1 channel with 488-nm laser).
For orientation: In flow cytometry, cells or beads pass a laser one at a time.

Turning to “Gly-Ser-Ser-Phe-Leu-Ser-Pro-Glu-His-Gln-Arg-Val-Gln-Gln-Arg-Lys-Glu-Ser-Lys-Lys-Pro-Pro-Ala-Lys-Leu-Gln-Pro-Arg (GSSFLSPEHQRVQQRKESKKPPAKLQPR; printed: Gly-Ser-Ser-Phe-Leu-Ser-Pro-Glu-His-Gln-Arg-Val-Gln-Gln-Arg-Lys-Glu-Ser-Lys-Lys-Pro-Pro-Ala-Lys-Leu-Gln-Pro-Arg) [ghrelin, 28-amino acid peptide neuroendocrine hormone, endogenous ligand for growth hormone secretagogue receptor; can include octanoyl acylation; obtainable from Phoenix Pharmaceuticals]”, the “Post-TBI up-regulation of Aquaporin 4 (AQP-4)” value in experiment [1] is “prevents post-TBI up-regulation of Aquaporin 4”. The “Oxidative burst of ipsilateral whole brain following mild BI (mean fluorescence intensity)” value in experiment [2] (mild BI + ghrelin (2 doses), subcutaneous 10 μg following mBI and 10 μg 1 hour after, vs 7963±2900 mild BI alone and 4624±1858 sham, p-value of 0.048, n=5) was 3257 AFU. For the same substance, the “Oxidative burst in inflammatory cells following mBI (flow cytometry peak shift, FIG. 2)” value in experiment [2] is “lower oxidative burst”; in experiment [2] (listed as Ghrelin), “reduced the oxidative burst”.

The record behind these values is patent US20180028617A1, “METHODS OF TREATING MILD BRAIN INJURY AND POST-TRAUMATIC STRESS DISORDER” (The Regents of the University of California, priority 2015, published 2018).
